In article PMC6327985, “Soyasaponins from Zolfino bean as aldose reductase differential inhibitors” (Journal of Enzyme Inhibition and Medicinal Chemistry, 2018):
Read-outs that look alike come from different tables or passages of the source.

Molecular target: T1, human recombinant AKR1B1 (hAKR1B1) (Homo sapiens, UniProt P15121)
T1 construct: made in house
Assay: Assay of aldose reductase: hAKR1B1-catalysed NADPH-dependent reduction of L-idose or HNE, decrease in absorbance at 340 nm
Format: biochemical
Conditions: for IC50: 8 mU hAKR1B1, authentic standard; for K’i (ternary enzyme-substrate-inhibitor complex dissociation constant) / Ki: Hanes-Woolf analysis, mean ± SEM; for Ki: read-out: Ki (binary enzyme-inhibitor complex dissociation constant)
Method: The AKR1B1 activity was determined at 37 °C as previously described, monitoring the decrease in absorbance at 340 nm linked to NADPH oxidation (ε340=6.22 mM^−1 cm^−1) through a Biochrom Libra S60 spectrophotometer. In a 0.25 M sodium phosphate buffer pH 6.8, the standard assay mixture contained 0.18 mM NADPH, 0.4 M ammonium sulphate, 0.5 mM EDTA and 4.7 mM GAL. One unit of enzyme activity is the amount that catalyses the conversion of 1 µmol of substrate/min in the above assay conditions. These assay conditions were also adopted to assess the effectiveness of inhibitors when L-idose or HNE were used, at the indicated concentrations, as substrates instead of GAL. Differential inhibition (DI) refers to the difference between the percentage inhibition observed using L-idose and HNE as substrates in the assay conditions indicated.
The human recombinant AKR1B1 (hAKR1B1) was expressed and purified to electrophoretic homogeneity as previously described. The purified enzyme (specific activity 5.3 U/mg) was stored at −80 °C in a 10 mM sodium phosphate buffer pH 7.0 containing 2 mM DTT and 30% (w/v) glycerol. Before use, the enzyme was extensively dialysed against a 10 mM sodium phosphate buffer pH 7.0.
The protein concentration was determined by the Coomassie blue staining method, using BSA as a standard protein. Statistical analysis was performed using the two-way ANOVA test carried out with Graphpad 6.0 software. IC50 determination was performed using standard statistical software (GraphPad Instat version 6.0, San Diego, CA). Results are reported as the mean of the values and the 95% confidence interval from at least three independent measurements.

[1] = substrate 0.04 mM HNE, read-out: IC50 for HNE reduction
[2] = substrate 0.8 mM L-idose, read-out: IC50 for L-idose reduction

IC50 [1] [µM] | IC50 [2] [µM] | K’i (ternary enzyme-substrate-inhibitor complex dissociation constant) (substrate HNE) [µM] | Ki (substrate HNE) [µM] | K’i (ternary enzyme-substrate-inhibitor complex dissociation constant) (substrate L-idose) [µM] | Ki (substrate L-idose) [µM] | inhibition model (with respect to HNE) | inhibition model (with respect to L-idose) | Structure (SMILES)
47 | 40 | 23 ± 4 | 65 ± 12 | 24 ± 2 | 66 ± 17 | mixed inhibitor | mixed inhibitor | CC1(C)C[C@@H](O)[C@]2(C)CC[C@]3(C)C(=CC[C@@H]4[C@@]5(C)CC[C@H](O[C@@H]6O[C@H](C(=O)O)[C@@H](O)[C@H](O)[C@H]6O[C@@H]6O[C@H](CO)[C@H](O)[C@H](O)[C@H]6O[C@@H]6O[C@H](CO)[C@@H](O)[C@H](O)[C@H]6O)[C@](C)(CO)[C@@H]5CC[C@]43C)[C@@H]2C1 [SSBa, soyasaponin Ba (V)]
360 | 170 | 248 ± 19 | – | 191 ± 11 | 176 ± 35 | uncompetitive | purely non-competitive inhibitor | C[C@@H]1O[C@@H](O[C@H]2[C@H](O[C@H]3[C@H](O[C@H]4CC[C@@]5(C)[C@@H](CC[C@]6(C)[C@@H]5CC=C5[C@@H]7CC(C)(C)C[C@@H](O)[C@]7(C)CC[C@]56C)[C@@]4(C)CO)O[C@H](C(=O)O)[C@@H](O)[C@@H]3O)O[C@H](CO)[C@H](O)[C@@H]2O)[C@H](O)[C@H](O)[C@H]1O [SSBb, soyasaponin Bb (I)]
